Laboratory results reported in publication PMC7802075 (ACS Infectious Diseases, 2020).
Where a name gives a salt, the structure may show the parent alone.

What follows are compounds tested against T1, LmjIPCS (inositol phosphorylceramide synthase from L. major) (Leishmania major, UniProt E9AFX2) (assay: biochemical). Conditions: not given.
T1 sequence (E9AFX2 1-338): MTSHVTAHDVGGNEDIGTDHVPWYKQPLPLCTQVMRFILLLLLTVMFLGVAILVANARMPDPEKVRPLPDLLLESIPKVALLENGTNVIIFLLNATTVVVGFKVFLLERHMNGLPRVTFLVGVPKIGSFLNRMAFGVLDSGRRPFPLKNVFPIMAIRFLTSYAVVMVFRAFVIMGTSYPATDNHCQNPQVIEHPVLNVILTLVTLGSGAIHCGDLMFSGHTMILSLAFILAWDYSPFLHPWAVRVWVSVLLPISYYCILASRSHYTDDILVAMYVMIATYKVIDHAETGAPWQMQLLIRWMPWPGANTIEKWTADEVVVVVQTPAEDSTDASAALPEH
Assay type: biochemical
Design: inhibition: dose or concentration left out as unconfirmed

Row | Compound | 20mM inhibition LmjIPCS [%]
1 | CN(C)[C@@H]1C(O)=C(C(N)=O)C(=O)[C@@]2(O)C(O)=C3C(=O)c4c(O)ccc(Cl)c4[C@@](C)(O)[C@H]3C[C@@H]12 [CHLORTETRACYCLINE] | 56
2 | Nc1ccc(C(=O)O)c(O)c1 [AMINOSALICYLATE SODIUM] | 43
3 | Cn1cnc([N+](=O)[O-])c1Sc1ncnc2nc[nH]c12 [AZATHIOPRINE] | 39
4 | C[C@]12CC[C@@H](OS(=O)(=O)O)C[C@@H]1CC[C@@H]1[C@@H]2CC[C@]2(C)C(=O)CC[C@@H]12 [ANDROSTERONE Sulfate] | 33
5 | Cc1oncc1C(=O)Nc1ccc(C(F)(F)F)cc1 [LEFUNOMIDE] | 10
6 | O=c1ccc2cc(O[C@@H]3O[C@H](CO)[C@@H](O)[C@H](O)[C@H]3O)c(O)cc2o1 [AESCULIN] | 10
7 | CCOc1nc2cccc(C(=O)OC(C)OC(=O)OC3CCCCC3)c2n1Cc1ccc(-c2ccccc2-c2nn[nH]n2)cc1 (stereo not shown) [CANDESARTAN CILEXTIL] | 11
8 | CN(C)CCC(c1ccc(Cl)cc1)c1ccccn1 (stereo not shown) [CHLORPHENIRAMINE] | 68
9 | OC(c1cc(C(F)(F)F)nc2c(C(F)(F)F)cccc12)C1CCCCN1 (stereo not shown) [MEFLOQUINE] | 49
10 | FC(F)(F)c1cccc(N2CCNCC2)c1 | 54
11 | CCN1CCN(C(=O)N[C@@H](C(=O)N[C@@H]2C(=O)N3[C@@H]2SC(C)(C)[C@@H]3C(=O)O)c2ccccc2)C(=O)C1=O [PIPERACILLIN] | 60
12 | CC(Cc1cccc(C(F)(F)F)c1)NCCOC(=O)c1ccccc1 (stereo not shown) [BENFLUOREX] | 65
13 | NCCc1cc(O)c(O)cc1O [OXIDOPAMINE] | 65
14 | NS(=O)(=O)c1cc2c(cc1C(F)(F)F)NC(Cc1ccccc1)NS2(=O)=O (stereo not shown) [BENDROFUMETHIAZIDE] | 63
15 | CC(C)COCC(CN(Cc1ccccc1)c1ccccc1)N1CCCC1 (stereo not shown) [BEPRIDIL] | 61
16 | CCC1(c2ccc(N)cc2)CCC(=O)NC1=O (stereo not shown) [AMINOGLUTETHIMIDE] | 56
17 | CCN(CC)C(C)CN1c2ccccc2Sc2ccccc21 (stereo not shown) [ETHOPROPAZINE] | 63
18 | COc1cc(NC(C)CCCN)c2ncccc2c1 (stereo not shown) [PRIMAQUINE] | 69

Same assay, conditions: NINDS set screen; read-out: inhibition LmjIPCS

Row | Compound | inhibition [%]
19 | O=C(CCCCCCCCCCCCC1CCCC1)Nc1ccc(S(=O)(=O)c2ccc(NC(=O)CCCCCCCCCCCCC3CCCC3)cc2)cc1 [CHAULMOSULFONE] | 32
20 | O=C1[C@H](CC[C@H](O)c2ccc(F)cc2)[C@@H](c2ccc(O)cc2)N1c1ccc(F)cc1 [EZETIMIBE] | 23
21 | O=C(c1ccccc1)c1ccc2n1CCC2C(=O)O (stereo not shown) [KETOROLAC] | 20
22 | CC(=O)Nc1ccc(OC(=O)c2ccccc2O)cc1 [ACETAMINOSALOL] | -0.337
23 | C=CCSCC=C [DIALLYL SULFIDE] | 17

Same assay, conditions: read-out: 20mM inhibition LmjIPCS

Row | Compound | inhibition at 20000 µM [%]
24 | O=c1cc[nH]c(=S)[nH]1 [2-THIOURACIL] | 7
25 | OCc1c[nH]c2ccccc12 [INDOLE-3-CARBINOL] | 11
26 | CCCCCC1C(=O)CCC1CC(=O)O (stereo not shown) [DIHYDROJASMONIC ACID] | 20
27 | CC(C)NCC(O)COc1cccc2[nH]ccc12 (stereo not shown) [PINDOLOL] | 16
28 | O=C(O)c1cc(=O)c2ccccc2[nH]1 [KYNURENIC ACID] | 6
29 | COc1cnc(NS(=O)(=O)c2ccc(N)cc2)nc1 | 21
30 | CC[C@H]1OC(=O)[C@H](C)C(=O)[C@H](C)[C@@H](O[C@@H]2O[C@H](C)C[C@H](N(C)C)[C@H]2O)[C@](C)(OC)C[C@@H](C)C(=O)[C@H](C)[C@H]2N(CCCCn3cnc(-c4cccnc4)c3)C(=O)O[C@]12C [TELITHROMYCIN] | 3.66
31 | C[C@]12CCC(=O)C=C1C=C[C@@H]1[C@@H]2CC[C@@]2(C)[C@H]1CC[C@@]21CCC(=O)O1 [CANRENONE] | 12
32 | C[N+]1(C)[C@@H]2C[C@@H](OC(=O)[C@H](CO)c3ccccc3)C[C@H]1[C@@H]1O[C@@H]12 [METHSCOPOLAMINE BROMIDE] | 10
33 | OCCN1C[C@H](O)[C@@H](O)[C@H](O)[C@H]1CO [MIGLITOL] | -0.821
34 | CC(=O)OCC(=O)[C@@]1(O)CC[C@H]2[C@@H]3CCC4=CC(=O)C=C[C@]4(C)[C@H]3[C@@H](O)C[C@@]21C [PREDNISOLONE ACETATE] | 25
35 | O=C(CCCCC(=O)Nc1c(I)cc(I)c(C(=O)O)c1I)Nc1c(I)cc(I)c(C(=O)O)c1I [IODIPAMIDE] | 7
36 | Cc1ncc(CNC(=O)N(CCCl)N=O)c(N)n1 [NIMUSTINE] | 20
37 | N#C/C(=C\c1cccc(O)c1)C(=O)O [alpha-CYANO-3-HYDROXYCINNAMIC ACID] | 8
38 | c1ccc2c(CC3=NCCN3)cccc2c1 [NAPHAZOLINE] | 28
39 | C[C@H](N)[C@H](O)c1ccc(O)c(O)c1 [LEVONORDEFRIN] | 16
40 | CC(=O)OCC(=O)[C@@]12OC(C)(C)O[C@@H]1C[C@H]1[C@@H]3C[C@H](F)C4=CC(=O)C=C[C@]4(C)[C@@]3(F)[C@@H](O)C[C@@]12C [FLUOCINONIDE] | 6
41 | CN(C)[C@@H]1C(O)=C(C(N)=O)C(=O)[C@@]2(O)C(O)=C3C(=O)c4c(O)ccc(Cl)c4[C@@H](O)[C@H]3C[C@@H]12 [DEMECLOCYCLINE] | -2
42 | [H]/N=C(/N)NS(=O)(=O)c1ccc(N)cc1 [SULFAGUANIDINE] | -1.62
43 | COc1ccc(C(=O)CC(=O)c2ccc(C(C)(C)C)cc2)cc1 [AVOBENZONE] | 0.941
44 | CCC1(c2ccccc2)C(=O)NCNC1=O [PRIMIDONE] | -1.2
45 | Oc1noc2c1CCNC2 [GABOXADOL] | -24
46 | C[C@H]1O[C@@H](O[C@H]2[C@@H](O)C[C@H](O[C@H]3[C@@H](O)C[C@H](O[C@H]4CC[C@@]5(C)[C@H](CC[C@@H]6[C@@H]5CC[C@]5(C)[C@@H](C7=CC(=O)OC7)CC[C@]65O)C4)O[C@@H]3C)O[C@@H]2C)C[C@H](O)[C@@H]1O [DIGITOXIN] | 5.28
47 | Cc1ccc(C(=O)c2ccc(CC(=O)O)n2C)cc1 [TOLMETIN] | 4

Same assay, conditions: read-out: inhibition LmjIPCS

Row | Compound | inhibition [%]
48 | CC(C)(Oc1ccc(CCNC(=O)c2ccc(Cl)cc2)cc1)C(=O)O [BEZAFIBRATE] | 11
49 | COc1ccc2[nH]cc(CCNC(C)=O)c2c1 [MELATONIN] | -5.63
50 | C[C@H](CCC(=O)O)[C@H]1CC[C@H]2[C@@H]3[C@@H](O)C[C@@H]4C[C@H](O)CC[C@]4(C)[C@H]3CC[C@]12C [URSODIOL] | 8
51 | N[C@@H](C(=O)N[C@@H]1C(=O)N2C(C(=O)O)=C(Cl)CS[C@H]12)c1ccccc1 [CEFACLOR] | 10
52 | COc1ccc2cc3[n+](cc2c1OC)CCc1cc2c(cc1-3)OCO2 [BERBERINE] | 6
53 | CC(C)Cc1ccc(C(C)C(=O)O)cc1 (stereo not shown) [IBUPROFEN] | 2.58

Same assay, conditions: screening of NINDS set, sheet Screen 1; read-out: inhibition LmjIPCS

Row | Compound | inhibition [%]
54 | CC(CN(C)C)CN1c2ccccc2CCc2ccccc21 (stereo not shown) [TRIMIPRAMINE] | 2
55 | CCC1(C)CC(=O)NC1=O (stereo not shown) [ETHOSUXIMIDE] | 6
56 | Nc1ccc(C(=O)NCC(=O)O)cc1 [AMINOHIPPURIC ACID] | 7
57 | CN(C)CCCO[C@@H]1[C@H]2OC(C)(C)O[C@H]2O[C@@H]1[C@H](O)CO [AMIPRILOSE] | 4
58 | CC(=O)N[C@@H](Cc1c[nH]c2ccccc12)C(N)=O [ACETYLTRYPTOPHANAMIDE] | 1.65
